# Laboratory results: patent publication US9326973B2, “Hepatitis C virus inhibitors” (priority 2012, dated 2016)
# Tested on: HCV replicon, genotype-1a variant with glutamine 30 changed to glutamate in the NS5A protein
# Assay: microbe, parasite or virus in culture
# Assay type: cell-based, HCV genotype 1a
# Details: not given
# Procedure, shortened: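 Synergy was assessed by combining several fixed amounts of an NS5A-targeting compound with a titration of the second compound of interest.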
row,SMILES,reciprocal synergistic inhibitory effect for the combination [fold]
1,"COC(=O)N[C@H](C(=O)N1CCC[C@H]1c1nc(-c2ccc(-c3ccc(-c4c[nH]c([C@@H]5CCCN5C(=O)[C@@H](NC(=O)OC)C(C)C)n4)cc3)cc2)c[nH]1)C(C)C [BMS-790052, reference compound]",~100

# Same assay, conditions: HCV replicon genotype 1a Q30E (Q→E) variant; test compound titrated with an NS5A-targeting compound (BMS-790052 fixed at 200 nM); ranking of synergist activity
row,SMILES,Fold-Synergistic 1a (Q30E) [fold]
1,CC(C)(C)[C@H](NC(=O)C1CC(=O)c2ccccc21)c1nc(-c2ccc(-c3ccc(-c4c[nH]c([C@@H](NC(=O)C5CC(=O)c6ccccc65)C(C)(C)C)n4)cc3)cc2)c[nH]1 (stereo partly shown) [Compound S-257],>10
2,O=C(c1ccc(-c2ccccc2)o1)N1CCC[C@H]1c1ncc(-c2ccc(-c3ccc(-c4cnc([C@@H]5CCCN5C(=O)c5ccc(-c6ccccc6)o5)[nH]4)cc3)cc2)[nH]1 [Compound S-137],>10
3,COC(=O)N[C@H](C(=O)N[C@H](c1ncc(-c2ccc(C#Cc3ccc(-c4cnc([C@@H](NC(=O)[C@@H](NC(=O)OC)C(C)C)C(C)C)[nH]4)cc3)cc2)[nH]1)C(C)C)C(C)C [Compound N-5],>10
4,CC(C)(OCC(F)F)C(=O)N[C@H](c1nc(-c2ccc(-c3ccc(-c4c[nH]c([C@@H](NC(=O)C(C)(C)OCC(F)F)C5(C)CC5)n4)cc3)cc2)c[nH]1)C1(C)CC1 [Compound Y-64],>100
5,CC(C)CC(=O)NC1(c2nc(-c3ccc(-c4ccc(-c5c[nH]c(C6(NC(=O)CC(C)C)CCCCC6)n5)cc4)cc3)c[nH]2)CCCCC1 [Compound N-24],<10
6,CCC(C)[C@H](NC(=O)[C@H](NC(=O)OC)C(C)C)c1nc(-c2ccc(-c3ccc(-c4c[nH]c([C@@H](NC(=O)[C@H](NC(=O)OC)C(C)C)C(C)CC)n4)cc3)cc2)c[nH]1 (stereo partly shown) [Compound N-32],>10
7,CC(C)(C)[C@H](NC(=O)C1CCC(=C(F)F)CC1)c1nc(-c2ccc(-c3ccc(-c4c[nH]c([C@@H](NC(=O)C5CCC(=C(F)F)CC5)C(C)(C)C)n4)cc3)cc2)c[nH]1 (stereo partly shown) [Compound N-121],>100
8,CC(=O)OC1C2CCCC1(C(=O)N[C@H](c1nc(-c3ccc(-c4ccc(-c5c[nH]c([C@@H](NC(=O)C67CCCC(CCC6)C7OC(C)=O)C(C)(C)C)n5)cc4)cc3)c[nH]1)C(C)(C)C)CCC2 (stereo partly shown) [Compound S-274],>100
9,CN(C(=O)C(C)(C)C(=O)N[C@H](c1nc(-c2ccc(-c3ccc(-c4c[nH]c([C@@H](NC(=O)C(C)(C)C(=O)N(C)C5CC5)C(C)(C)C)n4)cc3)cc2)c[nH]1)C(C)(C)C)C1CC1 [Compound W-140],<10
10,O=C(c1ccc(-c2ccccc2)cc1)N1CCC[C@H]1c1ncc(-c2ccc(-c3ccc(-c4cnc([C@@H]5CCCN5C(=O)c5ccc(-c6ccccc6)cc5)[nH]4)cc3)cc2)[nH]1 [Compound S-117],>10
11,O=C(c1ccc(C(F)(F)F)nc1)N1CCC[C@H]1c1ncc(-c2ccc(-c3ccc(-c4cnc([C@@H]5CCCN5C(=O)c5ccc(C(F)(F)F)nc5)[nH]4)cc3)cc2)[nH]1 [Compound S-140],>10
12,CC(C)CC(=O)N[C@@H](CC(C)(C)C)c1nc(-c2ccc(-c3ccc(-c4c[nH]c([C@H](CC(C)(C)C)NC(=O)CC(C)C)n4)cc3)cc2)c[nH]1 [Compound P-4],>10
13,CC(C)(C)[C@H](NC(=O)[C@@]12CC[C@@](C)(C(=O)O1)C2(C)C)c1nc(-c2ccc(-c3ccc(-c4c[nH]c([C@@H](NC(=O)[C@@]56CC[C@@](C)(C(=O)O5)C6(C)C)C(C)(C)C)n4)cc3)cc2)c[nH]1 [Compound P-170],>100
14,CC(C)(C)[C@H](NC(=O)C(C)(C)n1cnc(C(F)(F)F)c1)c1nc(-c2ccc(-c3ccc(-c4c[nH]c([C@@H](NC(=O)C(C)(C)n5cnc(C(F)(F)F)c5)C(C)(C)C)n4)cc3)cc2)c[nH]1 [Compound W-150],>100
15,CC(C)(C)[C@H](NC(=O)C(=O)N1CCCC1)c1nc(-c2ccc(-c3ccc(-c4c[nH]c([C@@H](NC(=O)C(=O)N5CCCC5)C(C)(C)C)n4)cc3)cc2)c[nH]1 [Compound W-21],>100
16,COC(C)(C)C(=O)N[C@H](c1nc(-c2ccc(-c3ccc(-c4c[nH]c([C@@H](NC(=O)C(C)(C)OC)C(C)C)n4)cc3F)cc2)c[nH]1)C(C)C [Compound N-96],>100
17,CC(C)(C(=O)N[C@H](c1nc(-c2ccc(-c3ccc(-c4c[nH]c([C@@H](NC(=O)C(C)(C)C(=O)N5CC6CC6C5)C(C)(C)C)n4)cc3)cc2)c[nH]1)C(C)(C)C)C(=O)N1CC2CC2C1 (stereo partly shown) [Compound W-153],>100
18,COc1ccc(CNC(C)(C)C(=O)N[C@H](c2nc(-c3ccc(-c4ccc(-c5c[nH]c([C@@H](NC(=O)C(C)(C)NCc6ccc(OC)cc6)C(C)(C)C)n5)cc4)cc3)c[nH]2)C(C)(C)C)cc1 [Compound S-267],>100
19,CC(C)(C)OC(=O)N1[C@H](C(=O)N[C@H](c2nc(-c3ccc(-c4ccc(-c5c[nH]c([C@@H](NC(=O)[C@@H]6COC(C)(C)N6C(=O)OC(C)(C)C)C(C)(C)C)n5)cc4)cc3)c[nH]2)C(C)(C)C)COC1(C)C [Compound L-55],>100

row,SMILES,Fold-Synergistic 1a (Q30E) [fold]
1,CC(C)[C@H](NC(=O)[C@@]1(C)CCCCO1)c1nc(-c2ccc(-c3ccc(-c4c[nH]c([C@@H](NC(=O)[C@@]5(C)CCCCO5)C(C)C)n4)cc3)cc2)c[nH]1 [Compound P-184],>100
2,CC(C)(C)[C@H](NC(=O)[C@H]1C[C@@](C)(O)C1)c1nc(-c2ccc(-c3ccc(-c4c[nH]c([C@@H](NC(=O)[C@H]5C[C@@](C)(O)C5)C(C)(C)C)n4)cc3)cc2)c[nH]1 [Compound W-169],>100
3,COCCOC(=O)N1C[C@H](F)C[C@H]1C(=O)N[C@H](c1nc(-c2ccc(-c3ccc(-c4c[nH]c([C@@H](NC(=O)[C@@H]5C[C@@H](F)CN5C(=O)OCCOC)C(C)(C)C)n4)cc3)cc2)c[nH]1)C(C)(C)C [Compound W-110],>100
4,O=C(c1cccc2ccccc12)N1CCC[C@H]1c1ncc(-c2ccc(-c3ccc(-c4cnc([C@@H]5CCCN5C(=O)c5cccc6ccccc56)[nH]4)cc3)cc2)[nH]1 [Compound S-119],>10
5,CC(C)(C)[C@H](NC(=O)C(C)(C)C1(O)CCOCC1)c1nc(-c2ccc(-c3ccc(-c4c[nH]c([C@@H](NC(=O)C(C)(C)C5(O)CCOCC5)C(C)(C)C)n4)cc3)cc2)c[nH]1 [Compound P-158],>100
6,COC(=O)N[C@@H](C(=O)N[C@H](c1ncc(-c2ccc(-c3ccc(-c4cnc([C@@H](NC(=O)[C@H](NC(=O)OC)C(C)C)C(C)C)o4)cc3)cc2)o1)C(C)C)C(C)C [Compound N-1],>10
7,CC1([C@H](NC(=O)[C@H]2C[C@@H]3CC(F)(F)C[C@@H]3C2)c2nc(-c3ccc(-c4ccc(-c5c[nH]c([C@@H](NC(=O)[C@H]6C[C@@H]7CC(F)(F)C[C@@H]7C6)C6(C)CC6)n5)cc4)cc3)c[nH]2)CC1 [Compound P-140],>100
8,CC(C)(C)[C@H](NC(=O)C(=O)N1CCC(C(F)(F)F)CC1)c1nc(-c2ccc(-c3ccc(-c4c[nH]c([C@@H](NC(=O)C(=O)N5CCC(C(F)(F)F)CC5)C(C)(C)C)n4)cc3)cc2)c[nH]1 [Compound W-60],>100
9,CC(C)[C@H](NC(=O)C(=O)N1C[C@@H](C)O[C@@H](C)C1)c1nc(-c2ccc(-c3ccc(-c4c[nH]c([C@@H](NC(=O)C(=O)N5C[C@@H](C)O[C@@H](C)C5)C(C)C)n4)cc3)cc2)c[nH]1 [Compound W-54],>100
10,CC(C)(C)[C@H](NC(=O)C(F)(F)C1(O)CCCCC1)c1nc(-c2ccc(-c3ccc(-c4c[nH]c([C@@H](NC(=O)C(F)(F)C5(O)CCCCC5)C(C)(C)C)n4)cc3)cc2)c[nH]1 [Compound P-159],>100
11,CC(C)(C)[C@H](NC(=O)C(F)(F)c1ccccc1)c1nc(-c2ccc(-c3ccc(-c4c[nH]c([C@@H](NC(=O)C(F)(F)c5ccccc5)C(C)(C)C)n4)cc3)cc2)c[nH]1 [Compound S-282],>100
12,CC(C)(C)OC(=O)N1CC(F)(F)C[C@H]1C(=O)N[C@H](c1nc(-c2ccc(-c3ccc(-c4c[nH]c([C@@H](NC(=O)[C@@H]5CC(F)(F)CN5C(=O)OC(C)(C)C)C(C)(C)C)n4)cc3)cc2)c[nH]1)C(C)(C)C [Compound W-88],>100
13,CCOC(=O)C(C)(C)C(=O)N[C@H](c1nc(-c2ccc(-c3ccc(-c4c[nH]c([C@@H](NC(=O)C(C)(C)C(=O)OCC)C(C)(C)C)n4)cc3)cc2)c[nH]1)C(C)(C)C [Compound W-126],>100
14,COC1(C(F)(F)C(=O)N[C@H](c2nc(-c3ccc(-c4ccc(-c5c[nH]c([C@@H](NC(=O)C(F)(F)C6(OC)CCCCC6)C(C)(C)C)n5)cc4)cc3)c[nH]2)C(C)(C)C)CCCCC1 [Compound P-167],>100
15,COc1ccccc1C1OC(=O)C[C@@H]1C(=O)N[C@H](c1nc(-c2ccc(-c3ccc(-c4c[nH]c([C@@H](NC(=O)[C@H]5CC(=O)OC5c5ccccc5OC)C(C)(C)C)n4)cc3)cc2)c[nH]1)C(C)(C)C (stereo partly shown) [Compound S-263],>10
16,CC(C)[C@H](NC(=O)C(C)(C)F)c1nc(-c2ccc(-c3ccc(-c4c[nH]c([C@@H](NC(=O)C(C)(C)F)C(C)C)n4)c(F)c3)cc2)c[nH]1 [Compound N-90],>100
17,O=C(c1nccc2ccccc12)N1CCC[C@H]1c1ncc(-c2ccc(-c3ccc(-c4cnc([C@@H]5CCCN5C(=O)c5nccc6ccccc56)[nH]4)cc3)cc2)[nH]1 [Compound S-202],>100
18,O=C(CCN1CCOCC1)N1CCC[C@H]1c1ncc(-c2ccc(-c3ccc(-c4cnc([C@@H]5CCCN5C(=O)CCN5CCOCC5)[nH]4)cc3)cc2)[nH]1 [Compound S-196],<10

# Same assay, conditions: Hepatitis C virus; genotype 1a Q30E replicon; P-55 fixed at 200 nM; read-out: EC50 of BMS-790052 in the presence of a fixed amount of P-55
row,SMILES,EC50 [nM]
1,"COC(=O)N[C@H](C(=O)N1CCC[C@H]1c1nc(-c2ccc(-c3ccc(-c4c[nH]c([C@@H]5CCCN5C(=O)[C@@H](NC(=O)OC)C(C)C)n4)cc3)cc2)c[nH]1)C(C)C [BMS-790052, reference compound]",~2

# Same assay, conditions: Hepatitis C virus; genotype 1a Q30E replicon; compound alone; read-out: EC50, titrated singly
row,SMILES,EC50 [nM]
1,"COC(=O)N[C@H](C(=O)N1CCC[C@H]1c1nc(-c2ccc(-c3ccc(-c4c[nH]c([C@@H]5CCCN5C(=O)[C@@H](NC(=O)OC)C(C)C)n4)cc3)cc2)c[nH]1)C(C)C [BMS-790052, reference compound]",~200
